Test results from publication PMC5676089 (Chemical Science, 2017).

What was measured:
Conditions in all cases: two-fold dilutions in MH broth, 16–18 hours at 37 °C; triplicates
P. aeruginosa PEJ2.6 = experiment: MIC, clinical isolate; assay type: cell-based, Pseudomonas aeruginosa
E. coli (W3110) = experiment: MIC; assay type: cell-based, Escherichia coli
P. aeruginosa ZEM1.A = experiment: MIC, clinical isolate; assay type: cell-based, Pseudomonas aeruginosa
S. aureus Newman (MSSA) = experiment: MIC; assay type: cell-based, Staphylococcus aureus
P. aeruginosa ZEM9.A = experiment: MIC, clinical isolate; assay type: cell-based, Pseudomonas aeruginosa
K. pneumoniae s. = experiment: MIC; assay type: cell-based, Klebsiella pneumoniae
S. aureus COL (MRSA) = experiment: MIC; assay type: cell-based, Staphylococcus aureus
A. baumannii 19606 = experiment: MIC; assay type: cell-based, Acinetobacter baumannii
P. aeruginosa PEJ9.1 = experiment: MIC, clinical isolate; assay type: cell-based, Pseudomonas aeruginosa

Polymyxin B
MIC PEJ2.6 (P. aeruginosa PEJ2.6): 0.5 μg mL^–1 | MIC E. coli (W3110) (E. coli (W3110)): 0.125 μg mL^–1 | MIC ZEM1.A (P. aeruginosa ZEM1.A): 0.125 μg mL^–1 | MIC S. aureus Newman (MSSA) (S. aureus Newman (MSSA)): >64 μg mL^–1 | MIC ZEM9.A (P. aeruginosa ZEM9.A): 4 μg mL^–1 | MIC K. pneumoniae s. (K. pneumoniae s.): 1 μg mL^–1 | MIC S. aureus COL (MRSA) (S. aureus COL (MRSA)): >64 μg mL^–1 | MIC A. baumannii 19606 (A. baumannii 19606): 0.125 μg mL^–1 | MIC PEJ9.1 (P. aeruginosa PEJ9.1): 0.5 μg mL^–1
